Test results as given in patent US20260286302A1, “METHODS FOR PRODUCING A SUPER CENTRAL MEMORY CD8 T CELL SUBTYPE BY POLY(ADP-RIBOSE) POLYMERASE (PARP) INHIBITION AND USES THEREOF” (Georgetown University, priority 2023, published 2026).

Legend:
pMel-1 CD8 T cells = type: cell-based; conditions: gp100-activated; for percentage of CD44hiCD62Lhi TCM CD8 T cell population: 48 h of treatment, for PARPi concentration-dependent
Procedure: For ACT experiments, CD8+ T cells from pMel-1 mice were activated with gp100 peptide with and without PARPi for 48 h. Based on their CD44 and CD62L expression, cells were sorted by FACS and transferred into 9-day-old B16F10 melanoma-bearing mice tumor-bearing mice (1×10^6 cells per mouse). Tumor growth and survival of mice were monitored.
A total of 0.1-0.2×10^6 cells per sample were stained for Live/Dead staining followed by fixation and permeabilization. […] CD8^+ T cells from tumor samples were stained similarly. Data acquisition was performed on a BD LSR II flow cytometer using the software FACS Diva v.9.0. Results were analyzed using FlowJo software (TreeStar). […]

human CD8 T cells = assay: In vitro-activated human CD8+ T cells, memory characteristics; type: cell-based; conditions: anti-CD3/CD28 coupled beads for 72 h
Procedure: For evaluation of memory characteristics in human CD8+ T cells, naive CD8+ T cells were activated in the presence or absence of PARPi, by Dynabeads™ Human T-Activator CD3/CD28 (Thermo Fisher #11131), […]. Post-activation cells were gated upon CD8^+ T cell population and various characteristics were investigated as described in the Examples below.
A total of 0.1-0.2×10^6 cells per sample were stained for Live/Dead staining followed by fixation and permeabilization. For IFNγ and granzyme B (Gzm B) staining, BD Cytofix/Cytoperm (catalog no. 51-2090KZ) and BD Perm/Wash (catalog no. 51-2091KZ) buffer set were used according to the manufacturer's instructions (BD Pharmingen). CD8^+ T cells from tumor samples were stained similarly. Data acquisition was performed on a BD LSR II flow cytometer using the software FACS Diva v.9.0. Results were analyzed using FlowJo software (TreeStar). MitoFM, a green-fluorescent mitochondrial stain, which localizes to mitochondria, was used as described previously (Sukumar et al., Cell Metab 23 (1): 63-76, 2016).
To this end, human naïve CD8 T cells were activated with anti-CD3/CD28 coupled beads for 72 h.

| SMILES | percentage of CD44hiCD62Lhi TCM CD8 T cell population (pMel-1 CD8 T cells) | expression of IFNγ and Gzm B in CD44hiCD62Lhi CD8 T cells (pMel-1 CD8 T cells; 48 h) | IFNγ expression (human CD8 T cells) | number of CD45ROhiCCR7hi cells (human CD8 T cells) | number of CD45ROhiCD62Lhi cells (human CD8 T cells) |
| --- | --- | --- | --- | --- | --- |
| NC(=O)c1cccc2cn(-c3ccc([C@@H]4CCCNC4)cc3)nc12 [Niraparib] | significantly increased |  |  |  |  |
| Cn1ncnc1[C@H]1c2n[nH]c(=O)c3cc(F)cc(c23)N[C@@H]1c1ccc(F)cc1 [Talazoparib] | significantly increased | significantly increased | significant increase | significant increase | significant increase |
